Test results as given in the supplement of paper PMC11451515.

System: SEM cells
Assay: cell viability relative to DMSO control; higher = less cytotoxic
Details: 48 h
Outline: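 Viability is a per-plate percentage relative to DMSO wells, with cell-free wells as background. CellTiter-Glo One luminescence was read after 48 h at 37°C on 1536-well plates (5 μl) of NOMO1 or SEM (500 cells/well) or P12-Ichikawa (1000 cells/well) leukemia cells. The cells had been adapted for at least four passages in each medium and pin-dosed with library compounds in DMSO from 47 μM to 0.79 nM in 11 threefold steps.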

[1] = HPLM + 10% dialyzed FBS, 0.000781 µM
[2] = HPLM + 10% dialyzed FBS, 0.00234 µM
[3] = HPLM + 10% dialyzed FBS, 0.00702 µM
[4] = HPLM + 10% dialyzed FBS, 0.0211 µM
[5] = HPLM + 10% dialyzed FBS, 0.0632 µM
[6] = HPLM + 10% dialyzed FBS, 0.19 µM
[7] = HPLM + 10% dialyzed FBS, 0.569 µM
[8] = HPLM + 10% dialyzed FBS, 1.71 µM
[9] = HPLM + 10% dialyzed FBS, 5.12 µM
[10] = HPLM + 10% dialyzed FBS, 15.4 µM
[11] = HPLM + 10% dialyzed FBS, 46.1 µM
[12] = RPMI 5 mM glucose + 10% FBS, 0.000781 µM
[13] = RPMI 5 mM glucose + 10% FBS, 0.00234 µM
[14] = RPMI 5 mM glucose + 10% FBS, 0.00702 µM
[15] = RPMI 5 mM glucose + 10% FBS, 0.0211 µM
[16] = RPMI 5 mM glucose + 10% FBS, 0.0632 µM
[17] = RPMI 5 mM glucose + 10% FBS, 0.19 µM
[18] = RPMI 5 mM glucose + 10% FBS, 0.569 µM
[19] = RPMI 5 mM glucose + 10% FBS, 1.71 µM
[20] = RPMI 5 mM glucose + 10% FBS, 5.12 µM
[21] = RPMI 5 mM glucose + 10% FBS, 15.4 µM
[22] = RPMI 5 mM glucose + 10% FBS, 46.1 µM
[23] = RPMI 5 mM glucose + 10% dialyzed FBS, 0.000781 µM
[24] = RPMI 5 mM glucose + 10% dialyzed FBS, 0.00234 µM
[25] = RPMI 5 mM glucose + 10% dialyzed FBS, 0.00702 µM
[26] = RPMI 5 mM glucose + 10% dialyzed FBS, 0.0211 µM
[27] = RPMI 5 mM glucose + 10% dialyzed FBS, 0.0632 µM
[28] = RPMI 5 mM glucose + 10% dialyzed FBS, 0.19 µM
[29] = RPMI 5 mM glucose + 10% dialyzed FBS, 0.569 µM
[30] = RPMI 5 mM glucose + 10% dialyzed FBS, 1.71 µM
[31] = RPMI 5 mM glucose + 10% dialyzed FBS, 5.12 µM
[32] = RPMI 5 mM glucose + 10% dialyzed FBS, 15.4 µM
[33] = RPMI 5 mM glucose + 10% dialyzed FBS, 46.1 µM

| Compound | cell viability [1] [%] | cell viability [2] [%] | cell viability [3] [%] | cell viability [4] [%] | cell viability [5] [%] | cell viability [6] [%] | cell viability [7] [%] | cell viability [8] [%] | cell viability [9] [%] | cell viability [10] [%] | cell viability [11] [%] | cell viability [12] [%] | cell viability [13] [%] | cell viability [14] [%] | cell viability [15] [%] | cell viability [16] [%] | cell viability [17] [%] | cell viability [18] [%] | cell viability [19] [%] | cell viability [20] [%] | cell viability [21] [%] | cell viability [22] [%] | cell viability [23] [%] | cell viability [24] [%] | cell viability [25] [%] | cell viability [26] [%] | cell viability [27] [%] | cell viability [28] [%] | cell viability [29] [%] | cell viability [30] [%] | cell viability [31] [%] | cell viability [32] [%] | cell viability [33] [%] |
| --- | --- | --- | --- | --- | --- | --- | --- | --- | --- | --- | --- | --- | --- | --- | --- | --- | --- | --- | --- | --- | --- | --- | --- | --- | --- | --- | --- | --- | --- | --- | --- | --- | --- |
| Cc1cccc(Nc2nc(N[C@@H]3CCCC[C@@H]3N)ncc2C(N)=O)c1 | 109 | 107 | 112 | 104 | 107 | 118 | 114 | 88.6 | 44 | 30.9 | 32.3 | 66.2 | 80.1 | 78 | 79.7 | 69.8 | 89.4 | 87.1 | 74.2 | 33.8 | 11.5 | 14.5 | 95.7 | 126 | 104 | 112 | 103 | 114 | 96.2 | 81.1 | 25.6 | 23.3 | 25 |
| CN1CCC(=C2c3ccccc3CCc3sccc32)CC1 | 75.4 | 85 | 107 | 94.1 | 101 | 109 | 93.3 | 111 | 102 | 95.8 | 51.1 | 81.8 | 104 | 97.4 | 106 | 96.1 | 113 | 111 | 120 | 97.3 | 117 | 82.1 | 82.5 | 110 | 114 | 99.5 | 104 | 118 | 122 | 111 | 124 | 108 | 68.3 |
| OCCN1CCN(CCCN2c3ccccc3Sc3ccc(C(F)(F)F)cc32)CC1 | 85.3 | 90 | 80.6 | 34.4 | 104 | 110 | 7.1 | 37.4 | 88.7 | 49.5 | 47.8 | 74.8 | 89.4 | 85.7 | 36 | 96.2 | 122 | 7.38 | 21.4 | 102 | 47.6 | 34.1 | 76.3 | 87.2 | 86.3 | 74.5 | 84 | 115 | 13.7 | 31.1 | 92.3 | 46.3 | 35.9 |
| O=C(Nc1ccncc1)C(=O)c1cn(Cc2ccc(Cl)cc2)c2ccccc12 | 92.5 | 94 | 91.7 | 81.9 | 54.8 | 31.5 | 29.4 | 24.7 | 25.7 | 28.5 | 26.3 | 130 | 105 | 122 | 114 | 57.7 | 33 | 17.8 | 18.2 | 18.7 | 22.2 | 28 | 107 | 88.4 | 95.3 | 75.9 | 58.5 | 27.7 | 23.9 | 20.9 | 26.6 | 25.3 | 30.5 |
| Cc1ccc(C)c(OCCCC(C)(C)C(=O)O)c1 | 83.8 | 81.2 | 99.6 | 85.3 | 97.3 | 94.9 | 92.5 | 92.7 | 92.6 | 98.5 | 96.8 | 97.1 | 87.2 | 87.9 | 97.9 | 94.8 | 103 | 88.7 | 93.9 | 103 | 103 | 92.1 | 91 | 104 | 93.1 | 90.7 | 104 | 91.9 | 102 | 87.1 | 99.5 | 108 | 95.5 |
| Cc1ccnc(N[S+](=O)([O-])c2ccc(NC(=O)Nc3ccc([S+](=O)([O-])Nc4nccc(C)n4)cc3)cc2)n1 | 77.9 | 90.3 | 89.8 | 90.1 | 86.8 | 38.8 | 35.6 | 10.6 | 8.5 | 7.84 | 6.37 | 86.6 | 73.1 | 79.4 | 75.2 | 64.8 | 9.99 | 8.62 | 6.14 | 6.29 | 5.29 | 3.81 | 77.8 | 86.7 | 87.7 | 85.8 | 77.5 | 21.9 | 19.7 | 8.34 | 8.01 | 7.59 | 5.43 |
| Clc1ccc(C(Cn2ccnc2)OCc2ccc(Sc3ccccc3)cc2)c(Cl)c1 (stereo unspecified) | 88.8 | 74.9 | 99.2 | 96.4 | 98.2 | 79.4 | 93.6 | 77.9 | 82.1 | 87.1 | 81.1 | 110 | 104 | 109 | 108 | 116 | 106 | 105 | 92.2 | 77 | 92.7 | 95.8 | 101 | 95.7 | 107 | 122 | 130 | 100 | 103 | 93.5 | 81 | 96.8 | 75.7 |
